Each structure is given as a SMILES string.

For assay [1], the system named is Paracentrotus lividus. Put plainly: Antimitotic microtubule destabilizing activity in Paracentrotus lividus L embryos assessed as induction of cleavage arrest.
For assay [2], the system named is Paracentrotus lividus. As to the kind of experiment: Antimitotic microtubule destabilizing activity in Paracentrotus lividus L embryos assessed as induction of embryo spinning.
The subject of assay [3] is Paracentrotus lividus. Put plainly: Antimitotic microtubule destabilizing activity in Paracentrotus lividus L embryos assessed as induction of cleavage alteration.
Assay [4] is described as follows: Cytotoxicity against human NCI60 cells. It counts as functional.
A short description of assay [5]: Cytotoxicity against human NCI60 cells assessed as mean cell growth at 10 uM. The format is functional.

In the case of `COc1ccccc1C1C(C#N)=C(N)Oc2cc(O)ccc21` (centres undefined), the figures for the EC with Paracentrotus lividus [1], in the assay on Paracentrotus lividus [2] and in the assay on Paracentrotus lividus [3] were over 4 µM, over 5 µM and 0.5 µM, respectively.

For the compound `N#CC1=C(N)Oc2cc(O)ccc2C1c1cc2c(c([N+](=O)[O-])c1)OCCO2` (centres undefined), the GI50 in assay [4] amounted to 99.3 µM. Besides, the EC with Paracentrotus lividus [1] is over 4 µM; in the assay on Paracentrotus lividus [2], over 4 µM; in the assay on Paracentrotus lividus [3], 4 µM.

As for `COc1ccc(C2C(C#N)=C(N)Oc3cc(OC)ccc32)cc1` (centres undefined), the EC with Paracentrotus lividus [1] is 1 µM; in the assay on Paracentrotus lividus [2], over 5 µM; in the assay on Paracentrotus lividus [3], 0.1 µM.

Regarding `N#CC1=C(N)Oc2cc(O)ccc2C1c1ccccc1I` (centres undefined), the results for the EC in the assay with Paracentrotus lividus [1], with Paracentrotus lividus [2] and in the assay with Paracentrotus lividus [3] were over 4 µM, over 4 µM and 4 µM, respectively.

As to `COc1ccc2c(c1)OC(N)=C(C#N)C2c1cc(OC)c2c(c1)OCO2` (centres undefined), the EC in the assay with Paracentrotus lividus [1] was determined as 0.02 µM; in the assay on Paracentrotus lividus [2] it was 0.05 µM; in the assay on Paracentrotus lividus [3] it was 0.005 µM.

Turning to `COc1ccc(C2C(C#N)=C(N)Oc3cc(O)ccc32)c(OC)c1OC` (centres undefined), the EC in the assay with Paracentrotus lividus [1], in the assay with Paracentrotus lividus [2] and in the assay on Paracentrotus lividus [3] was over 4 µM in each case.

For the compound `COc1cc(OC)c(C2C(C#N)=C(N)Oc3cc(O)ccc32)c(OC)c1` (centres undefined), the EC in the assay with Paracentrotus lividus [1] and with Paracentrotus lividus [2] was over 4 µM in each case.

On to `COc1ccc2c(c1)OC(N)=C(C#N)C2c1cc2c(c([N+](=O)[O-])c1)OCCO2` (centres undefined), for which the values for the EC in the assay with Paracentrotus lividus [1], with Paracentrotus lividus [2] and in the assay on Paracentrotus lividus [3] were 0.1 µM, 1 µM and 0.02 µM, respectively.

On to `COc1ccc(OC)c(C2C(C#N)=C(N)Oc3cc(O)ccc32)c1` (centres undefined), for which the figures for the EC in the assay with Paracentrotus lividus [1], in the assay on Paracentrotus lividus [2] and in the assay on Paracentrotus lividus [3] were over 4 µM, over 4 µM and 1 µM, respectively. Also, the Activity in assay [5] was determined as 94.5%.

`N#CC1=C(N)Oc2cc(O)ccc2C1c1ccccc1F` (centres undefined): the EC in the assay with Paracentrotus lividus [1] was 4 µM; in the assay on Paracentrotus lividus [2], over 5 µM; in the assay on Paracentrotus lividus [3] it was 1 µM.

With `COc1cccc(C2C(C#N)=C(N)Oc3cc(O)ccc32)c1OC` (centres undefined), the EC in the assay on Paracentrotus lividus [1], in the assay with Paracentrotus lividus [2] and with Paracentrotus lividus [3] was over 4 µM in each case.

With `COc1cc(C2C(C#N)=C(N)Oc3cc(O)ccc32)cc2c1OCO2` (centres undefined), the figures for the EC in the assay with Paracentrotus lividus [1], in the assay with Paracentrotus lividus [2] and in the assay on Paracentrotus lividus [3] were 4 µM, 10 µM and 0.5 µM, respectively.

For `COc1ccc2c(c1)OC(N)=C(C#N)C2c1ccc(OC)c(OC)c1` (centres undefined), the EC in the assay on Paracentrotus lividus [1] is 0.2 µM; in the assay on Paracentrotus lividus [2] it was 1 µM; in the assay on Paracentrotus lividus [3], 0.05 µM.

Compound `COc1cc([C@@H]2c3cc4c(cc3[C@H](O)[C@H]3COC(=O)[C@H]23)OCO4)cc(OC)c1OC` [PODOFILOX] had a GI50 in assay [4] of 0.021 µM. The EC in the assay with Paracentrotus lividus [1] turned out to be 0.05 µM; in the assay on Paracentrotus lividus [2] it was 0.5 µM; in the assay with Paracentrotus lividus [3] it was 0.02 µM.

Regarding `COc1ccc2c(c1)OC(N)=C(C#N)[C@@H]2c1cc(OC)c(OC)c(OC)c1`, the EC with Paracentrotus lividus [1] is 0.04 µM; in the assay on Paracentrotus lividus [2] it was 0.2 µM; with Paracentrotus lividus [3] it was 0.005 µM.

Consider `COc1ccc(C2C(C#N)=C(N)Oc3cc(O)ccc32)cc1OC` (centres undefined), for which the EC in the assay on Paracentrotus lividus [1], with Paracentrotus lividus [2] and in the assay with Paracentrotus lividus [3] was over 4 µM throughout. The Activity in assay [5] was found to be 99.4%.

For the compound `COc1cc(C2C(C#N)=C(N)Oc3cc(O)ccc32)cc2c1OCCO2` (centres undefined), the EC was 4 µM in the assay with Paracentrotus lividus [1], over 5 µM with Paracentrotus lividus [2] and 1 µM with Paracentrotus lividus [3].

For the compound `COc1cccc([C@@H]2C(C#N)=C(N)Oc3cc(OC)ccc32)c1`, the results for the EC in the assay on Paracentrotus lividus [1], in the assay with Paracentrotus lividus [2] and in the assay with Paracentrotus lividus [3] were 0.5 µM, 4 µM and 0.05 µM, respectively.

As for `COc1cccc(C2C(C#N)=C(N)Oc3cc(O)ccc32)c1` (centres undefined), the figures for the EC in the assay on Paracentrotus lividus [1], with Paracentrotus lividus [2] and in the assay on Paracentrotus lividus [3] were 2 µM, over 5 µM and 0.1 µM, respectively.

Regarding `COc1ccc(C2C(C#N)=C(N)Oc3cc(O)ccc32)cc1` (centres undefined), the EC with Paracentrotus lividus [1], in the assay on Paracentrotus lividus [2] and with Paracentrotus lividus [3] was over 4 µM throughout. Besides, the Activity in assay [5] was found to be 96%.

As for `COc1ccc2c(c1)OC(N)=C(C#N)[C@H]2c1cc(OC)c(OC)c(OC)c1`, the figures for the EC with Paracentrotus lividus [1], in the assay on Paracentrotus lividus [2] and in the assay on Paracentrotus lividus [3] were over 4 µM, over 5 µM and 2 µM, respectively.

Regarding `COc1ccc(C2C(C#N)=C(N)Oc3cc(O)ccc32)c(OC)c1` (centres undefined), the EC in the assay on Paracentrotus lividus [1], in the assay on Paracentrotus lividus [2] and with Paracentrotus lividus [3] was over 4 µM throughout.

Take `N#CC1=C(N)Oc2cc(O)ccc2C1c1ccccc1` (centres undefined): the figures for the EC in the assay with Paracentrotus lividus [1], in the assay with Paracentrotus lividus [2] and with Paracentrotus lividus [3] were 2 µM, over 5 µM and 0.5 µM, respectively.

`COc1cccc([C@H]2C(C#N)=C(N)Oc3cc(OC)ccc32)c1`: the EC in the assay on Paracentrotus lividus [1] stood at 0.01 µM; with Paracentrotus lividus [2] it was 0.05 µM; in the assay on Paracentrotus lividus [3], 0.001 µM.

In turn, `COc1cc(C2C(C#N)=C(N)Oc3cc4c(cc32)OCO4)cc2c1OCO2` (centres undefined) registered a GI50 in assay [4] of 0.389 µM. Moreover, the EC in the assay with Paracentrotus lividus [1] was determined as 0.05 µM; in the assay on Paracentrotus lividus [2] it was 0.2 µM; with Paracentrotus lividus [3] it was 0.005 µM.

Consider `CCOc1ccccc1C1C(C#N)=C(N)Oc2cc(OC)ccc21` (centres undefined), for which the EC worked out at 0.2 µM in the assay with Paracentrotus lividus [1], 0.5 µM in the assay with Paracentrotus lividus [2] and 0.02 µM with Paracentrotus lividus [3].

With `COc1ccc2c(c1)OC(N)=C(C#N)C2c1cc(OC)c2c(c1OC)OCO2` (centres undefined), the EC was 1 µM in the assay with Paracentrotus lividus [1], 4 µM in the assay on Paracentrotus lividus [2] and 0.1 µM in the assay with Paracentrotus lividus [3].

Consider `COc1ccc2c(c1)OC(N)=C(C#N)C2c1cccc(OC)c1OC` (centres undefined), for which the values for the EC in the assay on Paracentrotus lividus [1], in the assay with Paracentrotus lividus [2] and in the assay on Paracentrotus lividus [3] were 2 µM, 4 µM and 0.2 µM, respectively.

Regarding `COc1ccc(C2C(C#N)=C(N)Oc3cc(OC)ccc32)c(OC)c1` (centres undefined), the results for the EC with Paracentrotus lividus [1], in the assay with Paracentrotus lividus [2] and with Paracentrotus lividus [3] were 1 µM, 4 µM and 0.1 µM, respectively.

As for `COc1cc(C2C(C#N)=C(N)Oc3cc(O)ccc32)c(OC)c(OC)c1OC` (centres undefined), the EC in the assay on Paracentrotus lividus [1], in the assay on Paracentrotus lividus [2] and in the assay on Paracentrotus lividus [3] was over 4 µM each time.

For `COc1c(C2C(C#N)=C(N)Oc3cc(O)ccc32)cc2c(c1OC)OCO2` (centres undefined), the figures for the EC in the assay with Paracentrotus lividus [1], with Paracentrotus lividus [2] and in the assay with Paracentrotus lividus [3] were over 4 µM, over 4 µM and 4 µM, respectively.

For the compound `COc1ccc2c(c1)OC(N)=C(C#N)C2c1cc(N)c2c(c1)OCCO2` (centres undefined), the EC with Paracentrotus lividus [1] was 0.5 µM; in the assay on Paracentrotus lividus [2], 5 µM; with Paracentrotus lividus [3], 0.1 µM.

For `COc1ccc2c(c1)OC(N)=C(C#N)C2c1cc(OC)c2c(c1)OCCO2` (centres undefined), the EC with Paracentrotus lividus [1] was 0.02 µM; with Paracentrotus lividus [2] it was 0.1 µM; with Paracentrotus lividus [3] it was 0.005 µM.

Values taken from ChEMBL document CHEMBL3352739, “Comparative in vivo evaluation of polyalkoxy substituted 4H-chromenes and oxa-podophyllotoxins as microtubule destabilizing agents in the phenotypic sea urchin embryo assay” (2014).
